In patent publication US20120189673A1, “POLYPEPTIDES AND USES THEREOF” (priority 2009, published 2012):
Entries after “also recorded” stand apart in the source; their conditions may differ. Read-outs that look alike come from different tables or passages of the source.

What was measured:
[1] = tested on: thrombin induced fibrin network formation in normal human plasma; assay: Clotting assay: thrombin clotting time (TCT); format: biochemical
Experimental: Clotting assays. All clotting times were measured using an Amelung coagulometer. Activated partial thromboplastin time (aPTT) was measured by incubating the peptides diluted in sterile water at the indicated concentrations, with 100 μL citrated human plasma for 1 minute followed by the addition of 100 μL aPTT reagent (aPTT Automate, Diagnostica Stago) for 60 seconds at 37° C. Clotting was initiated by the addition of 100 μL of a 25-mM CaCl2 solution. In the prothombrin time assay (PT), clotting was initiated by the addition of 100 μL Thrombomax with calcium (PT reagent; Sigma-Aldrich). For measuring the thrombin clotting time (TCT), clotting was initiated by the addition of 100 μL Accuclot thrombin time reagent (TCT reagent; Sigma-Aldrich).

[2] = Liposome leakage assay (carboxyfluorescein release); details: for CF release from liposomes: 10 mM Tris-buffer; for share of the maximal CF release: within 5-10 minutes, 1 μM of peptides
Text: Liposome preparation and leakage assay. The liposomes investigated were either zwitterionic (DOPC/cholesterol 60/40 mol/mol or DOPC without cholesterol) or anionic (DOPE/DOPG 75/25 mol/mol). DOPG (1,2-Dioleoyl-sn-Glycero-3-Phosphoglycerol, monosodium salt), DOPC (1,2-dioleoyl-sn-Glycero-3-phosphocholine), and DOPE (1,2-dioleoyl-sn-Glycero-3-phosphoetanolamine) were all from Avanti Polar Lipids (Alabaster, USA) and of >99% purity, while cholesterol (>99% purity), was from Sigma-Aldrich (St. Louis, USA). Due to the long, symmetric and unsaturated acyl chains of these phospholipids, several methodological advantages are reached. In particular, membrane cohesion is good, which facilitates very stable, unilamellar, and largely defect-free liposomes (observed from cryo-TEM) and well defined supported lipid bilayers (observed by ellipsometry and AFM), allowing detailed values on leakage and adsorption density to be obtained. The lipid mixtures were dissolved in chloroform, after which solvent was removed by evaporation under vacuum overnight. Subsequently, 10 mM Tris buffer, pH 7.4, was added together with 0.1 M carboxyfluorescein (CF) (Sigma, St. Louis, USA). After hydration, the lipid mixture was subjected to eight freeze-thaw cycles consisting of freezing in liquid nitrogen and heating to 60° C. Unilamellar liposomes of about Ø140 nm were generated by multiple extrusions through polycarbonate filters (pore size 100 nm) mounted in a LipoFast miniextruder (Avestin, Ottawa, Canada) at 22° C. Untrapped CF was removed by two subsequent gel filtrations (Sephadex G-50, GE Healthcare, Uppsala, Sweden) at 22° C., with Tris buffer as eluent. CF release from the liposomes was determined by monitoring the emitted fluorescence at 520 nm from a liposome dispersion (10 mM lipid in 10 mM Tris, pH 7.4). An absolute leakage scale was obtained by disrupting the liposomes at the end of each experiment through addition of 0.8 mM Triton X-100 (Sigma-Aldrich, St. Louis, USA). A SPEX-fluorolog 1650 0.22-m double spectrometer (SPEX Industries, Edison, USA) was used for the liposome leakage assay in Tris buffer in the absence and presence of liposomes under conditions described above. Measurements were performed in triplicate at 37° C.
Liposome preparation and leakage assay—The liposomes investigated were anionic (DOPE/DOPG 75125 mol/mol). DOPG (1,2-Dioleoyl-sn-Glycero-3-Phosphoglycerol, monosodium salt) and DOPE (1,2-dioleoyl-sn-Glycero-3-phoshoetanolamine) were both from Avanti Polar Lipids (Alabaster, USA) and of >99% purity. […] CF release from the liposomes was determined by monitoring the emitted fluorescence at 520 nm from a liposome dispersion (10 µM lipid in 10 mM Tris, pH 7.4). […]

E. coli = assay: Viable count analysis, E. coli; format: cell-based, Escherichia coli; details: for antibacterial activity (cfu) / bactericidal activity in presence of human plasma: 10 mM Tris; for antibacterial activity (cfu): pH 7.4 buffer, dose-response (FIG. 34C); for bactericidal activity in presence of human plasma: 0.15 M NaCl, pH 7.4 with 20% human citrate plasma, versus buffer; for bactericidal activity in heat-inactivated plasma: 20% heat-inactivated human citrate plasma
Experimental: Viable count analysis. E. coli ATCC 25922 bacteria were grown to mid-logarithmic phase in Todd-Hewitt (TH) medium. Bacteria were washed and diluted in 10 mM Tris, pH 7.4 containing 5 mM glucose. E. coli ATCC 25922 (50 μl; 2×10^6 cfu/ml) were incubated, at 37° C. for 2 h with peptides at the indicated concentrations. Other experiments with the TFPI-peptides and LL-37 were performed in 10 mM Tris, pH 7.4, containing also 0.15 M NaCl, with normal or heat inactivated 20% citrate-plasma (PP). Serial dilutions of the incubation mixture were plated on TH agar, followed by incubation at 37° C. overnight and cfu determination.
Viable count analysis—E. coli strains were grown to mid-logarithmic phase in Todd-Hewitt (TH). P. aeruginosa strains were grown in TH overnight. Bacteria were washed and diluted in 10 mM Tris, pH 7.4 containing 5 mM glucose. 2×10^6 cfu/ml bacteria were incubated in 50 μl, at 37° C. for 2 h with the C-terminal TFPI-derived peptides GGL27, TKR22, or LIK17 at the indicated concentrations. Additional experiments were performed in 10 mM Tris, pH 7.4, containing 0.15 M NaCl, either alone or with 20% normal or heat inactivated citrate-plasma. Serial dilutions of the incubation mixture were plated on TH agar, followed by incubation at 37° C. overnight and cfu determination.

Sequence: GGLIKTKRKRKKQRVKIAYEEIFVKNM [GGL27, C-terminal peptide of TFPI, plasmin-generated]
- thrombin clotting time (TCT) [1]: not significantly affected
- thrombin clotting time (TCT) ([1]; listed as GGL-27): impairs coagulation in a dose dependent manner
- CF release from liposomes [2]: caused CF release
- share of the maximal CF release [2]: ~80%
- antibacterial activity (cfu) (E. coli): significant antibacterial activity
- bactericidal activity in presence of human plasma (E. coli): enhanced in human plasma; also recorded: significantly enhanced
- bactericidal activity in heat-inactivated plasma (E. coli): largely abolished in heat-inactivated plasma; also recorded: abolished the potentiation

Sequence: LIKTKRKRKKQRVKIAY [LIK17]
- thrombin clotting time (TCT) [1]: not significantly affected
- CF release from liposomes [2]: caused CF release
- share of the maximal CF release [2]: ~80%
- antibacterial activity (cfu) (E. coli): significant antibacterial activity
- bactericidal activity in presence of human plasma (E. coli): significantly enhanced
- bactericidal activity in heat-inactivated plasma (E. coli): abolished the potentiation
